Assay results published in patent US20230416329A1, “A PEPTIDE WITH DISULFIDE BONDS AND INHIBITORY ACTIVITY AGAINST SERINE PROTEASES, DERIVED HYBRID PEPTIDES THEREOF, AND USES THEREOF” (INSTITUTE OF MATERIA MEDICA , CHINESE ACADEMY OF MEDICAL …, priority 2020, published 2023).
Like-named read-outs stand apart in the source and are kept apart here. Bridge positions count the residues as written; N and C are the ends. Peptide text beside a SMILES is read from it.

Target: T1, bovine trypsin (Bos taurus, UniProt P00760)
T1 sequence (P00760 24-246): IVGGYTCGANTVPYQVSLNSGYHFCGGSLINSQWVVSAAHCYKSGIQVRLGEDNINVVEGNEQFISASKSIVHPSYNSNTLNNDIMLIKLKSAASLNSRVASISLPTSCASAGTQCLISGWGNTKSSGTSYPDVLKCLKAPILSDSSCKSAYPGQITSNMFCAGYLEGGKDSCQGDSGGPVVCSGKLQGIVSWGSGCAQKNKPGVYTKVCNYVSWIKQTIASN
Test: Trypsin inhibitory activity of peptides (BApNA hydrolysis, OD405; IC50, Ki, residual activity)
Assay type: biochemical
Experimental: The substrates N-succinyl-Ala-Ala-Pro-Phe-p-nitroaniline (AAPFpNA), Nα—Benzoyl-L-arginine-4-nitroaniline hydrochloride (BApNA) and N-succinyl-[…] (AAApNA) are used in competitive binding reaction to determine the inhibitory activities against α-chymotrypsin, bovine trypsin, and porcine pancreatic elastase, respectively. Experiments for α-chymotrypsin and bovine trypsin inhibition were measured in 20 mM CaCl2, 50 mM Tris-HCl buffer (pH 7.8), and that for porcine elastase inhibition was measured in 50 mM Tris-HCl buffer (pH 8.0). The concentration of the peptide was measured using optical density (OD) at 280 nm. The Michaelis constant (Km) of the enzyme hydrolysis substrate is calculated from the initial rate of substrate hydrolysis at 405 nm. The absorbance value of the substrate was measured at 405 nm after complete hydrolysis. All data were processed using nonlinear regression.
• (1) Added 200 μL of reaction buffer (20 mM CaCl2 and 50 mM Tris-HCl, pH 7.8) into the 96-well plate, and preheated at 37° C. for 15 min. Then added 5 μL of different concentrations of substrates (p-Nitroanilide, pNA, 0.5% in DMSO), and mixed by centrifugation at 500 rpm for 1 min. […] The experiment was performed in triplicate. The standard curve was obtained by plotting the OD405 nm value with pNA concentration. • (2) Added 190 μL of reaction buffer (20 mM CaCl2 and 50 mM Tris-HCl, pH 7.8) and 10 μL of 1 μM trypsin into the 96-well plate, and preheated at 37° C. for 15 min. Then added 5 μL of different concentrations of substrates (BApNA, 0.5% in DMSO) and mixed by centrifugation at 500 rpm for 1 min. […] The experiment was performed in triplicate. The corresponding curve was obtained by plotting the OD405 nm value with time. Divided the slope of the curve by the slope of the standard curve and the enzyme concentration to obtain the initial velocity V0 (mM/(min*mM protein). Plotted the initial velocity V0 with the concentration of substrate BApNA using Prism software, and the Michaelis constant Km value of trypsin hydrolyzing BApNA was obtained.
• (1) Added a total 190 μL of reaction buffer (20 mM CaCl2 and 50 mM Tris-HCl, pH 7.8) along with different concentrations of anti-trypsin peptides (BTs) into the pre-cooled 96-well plate, followed by preheating at 37° C., and spined down at 500 rpm for 5 min. Next added 10 μL of 1 μM trypsin, incubated at 37° C., and then spined down at 500 rpm for 10 min. Finally, added 5 μL of 50 mM BApNA, and mixed by centrifugation at 500 rpm for 1 min. The plate was incubated at 37° C. for 260 min, and the absorbance value at 405 nm was measured. The experiment was performed in triplicate. The blank control only contained the reaction buffer and the substrate as the minimum absorption value (Min OD405 nm). The negative control only contained the reaction buffer, the enzyme and the substrate as the maximum absorption value (Max OD405 nm). • (2) In the reaction system of 205 μL, the final concentrations of trypsin and BApNA were 50 nM and 1.22 mM, respectively. • (3) Data statistics
Residual activity of the enzyme (%)=(1−(Max OD405 nm−Sample OD405 nm)/(Max OD405 nm−Min OD405 nm))*100
Plotted the residual activity of the enzyme with […] to obtain the half inhibitory concentration (IC50) of BTs scaffold against trypsin. Then, substituted it into the formula Ki=IC50/(1+S/Km) (S, IC50 and Km were substrate concentration, half inhibitory concentration and Michaelis constant, respectively) to obtain the inhibition constant Ki of BTs scaffold against trypsin.

[1] = Ki=IC50/(1+S/Km), Km 0.33 mM, read-out: Ki

CC[C@H](C)[C@@H]1NC(=O)[C@H](C)NC(=O)[C@@H]2CCCN2C(=O)[C@H]([C@@H](C)CC)NC(=O)[C@H](CO)NC(=O)[C@H](CCCCN)NC(=O)[C@H]([C@@H](C)O)NC(=O)[C@H](C)NC(=O)[C@H](CCCNC(=N)N)NC(=O)CNC(=O)[C@@H](N)CSSC[C@@H](C(=O)N[C@@H](Cc2ccccc2)C(=O)O)NC1=O [BT10] (H-CGRATKSIPAICF-OH; disulfide 1-12)
inhibitory activity against trypsin (in words): excellent trypsin inhibitory activities
Residual trypsin activity (peptide 0.00098 μM): 99.7 ± 0.6%
Residual trypsin activity (peptide 0.00488 μM): 99.8 ± 1.8%
Residual trypsin activity (peptide 0.0098 μM): 95.5 ± 1.1%
Residual trypsin activity (peptide 0.098 μM): 55.6 ± 2.3%
Residual trypsin activity (peptide 0.195 μM): 17.2 ± 3.4%
Residual trypsin activity (peptide 0.488 μM): 1.0 ± 0.1%
Residual trypsin activity (peptide 0.7317 μM): 0.2 ± 0.1%
Residual trypsin activity (peptide 0.98 μM): −0.1 ± 0.1%
Ki (read-out: inhibition constant (Ki) towards trypsin): 20 nM
IC50 (trypsin 50 nM, BApNA 1.22 mM, read-out: IC50): 110 nM

CC[C@H](C)[C@@H]1NC(=O)[C@@H]2CCCN2C(=O)[C@@H]2CCCN2C(=O)[C@H]([C@@H](C)CC)NC(=O)[C@H](CO)NC(=O)[C@H](CCCCN)NC(=O)[C@H]([C@@H](C)O)NC(=O)[C@H](C)NC(=O)[C@H](CCCNC(=N)N)NC(=O)CNC(=O)[C@@H](N)CSSC[C@@H](C(=O)O)NC(=O)[C@H](Cc2ccccc2)NC(=O)[C@H](C)NC1=O [BT11] (H-CGRATKSIPPIAFC-OH; disulfide 1-14; N-terminus and C-terminus assumed)
inhibitory activity against trypsin (in words): still maintained good inhibitory activity against trypsin
Residual trypsin activity (peptide 0.488 μM): 100.2 ± 3.7%
Residual trypsin activity (peptide 0.7317 μM): 102.4 ± 4.2%
Residual trypsin activity (peptide 0.98 μM): 101.5 ± 5.1%
Residual trypsin activity (peptide 1.561 μM): 79.3 ± 1.0%
Residual trypsin activity (peptide 1.95 μM): 75.8 ± 4.6%
Residual trypsin activity (peptide 2.93 μM): 6.2 ± 3.1%
Residual trypsin activity (peptide 3.90 μM): 4.1 ± 1.0%
Residual trypsin activity (peptide 4.88 μM): 1.4 ± 0.3%

CC[C@H](C)[C@@H]1NC(=O)[C@H](CO)NC(=O)[C@H](CCCCN)NC(=O)[C@H]([C@@H](C)O)NC(=O)[C@H](C)NC(=O)[C@H](CCCNC(=N)N)NC(=O)CNC(=O)[C@@H](N)CSSC[C@@H](C(=O)N[C@@H](Cc2ccc(O)cc2)C(=O)O)NC(=O)[C@H](CCC(N)=O)NC(=O)[C@@H]2CCCN2C(=O)[C@@H]2CCCN2C1=O [BT12] (H-CGRATKSIPPQCY-OH; disulfide 1-12; N-terminus and C-terminus assumed)
inhibitory activity against trypsin (in words): significant impact on their anti-trypsisn activities
Residual trypsin activity (peptide 0.0488 μM): 100.5 ± 2.0%
Residual trypsin activity (peptide 0.2439 μM): 106.5 ± 3.4%
Residual trypsin activity (peptide 0.98 μM): 107.9 ± 1.4%
Residual trypsin activity (peptide 3.90 μM): 68.3 ± 0.1%
Residual trypsin activity (peptide 5.85 μM): 24.0 ± 1.2%
Residual trypsin activity (peptide 9.76 μM): 0.7 ± 0.1%
Residual trypsin activity (peptide 14.63 μM): 0.3 ± 0.1%
Residual trypsin activity (peptide 19.51 μM): −0.2 ± 0.1%

CC[C@H](C)[C@@H]1NC(=O)[C@@H]2CCCN2C(=O)[C@@H]2CCCN2C(=O)[C@H]([C@@H](C)CC)NC(=O)[C@H](CO)NC(=O)[C@H](CCCCN)NC(=O)[C@H]([C@@H](C)O)NC(=O)[C@H](C)NC(=O)[C@H](CCCNC(=N)N)NC(=O)CNC(=O)[C@@H](N)CSSC[C@@H](C(=O)O)NC(=O)[C@H](C)NC1=O [BT13] (H-CGRATKSIPPIAC-OH; disulfide 1-13; N-terminus and C-terminus assumed)
inhibitory activity against trypsin (in words): still maintained good inhibitory activity against trypsin

CC(C)C[C@@H]1NC(=O)[C@H](CO)NC(=O)[C@H](CCCCN)NC(=O)[C@H]([C@@H](C)O)NC(=O)[C@H](C)NC(=O)[C@H](CCCNC(=N)N)NC(=O)CNC(=O)[C@@H](N)CSSC[C@@H](C(=O)N[C@@H](Cc2ccccc2)C(=O)O)NC(=O)[C@H](C)NC(=O)[C@@H]2CCCN2C(=O)[C@@H]2CCCN2C1=O [BT14] (H-CGRATKSLPPACF-OH; disulfide 1-12; N-terminus and C-terminus assumed)
inhibitory activity against trypsin (in words): reduced their anti-trypsin activities

CC[C@H](C)[C@@H]1NC(=O)[C@H](CO)NC(=O)[C@H](CCCNC(=N)N)NC(=O)[C@H]([C@@H](C)O)NC(=O)[C@H](C)NC(=O)[C@H](CCCNC(=N)N)NC(=O)CNC(=O)[C@@H](N)CSSC[C@@H](C(=O)N[C@@H](Cc2ccccc2)C(=O)O)NC(=O)[C@H](C)NC(=O)[C@@H]2CCCN2C(=O)[C@@H]2CCCN2C1=O [BT15] (H-CGRATRSIPPACF-OH; disulfide 1-12; N-terminus and C-terminus assumed)
inhibitory activity against trypsin (in words): significant impact on their anti-trypsisn activities

CC[C@H](C)[C@@H]1NC(=O)[C@H](C)NC(=O)[C@@H]2CCCN2C(=O)[C@H](CC(C)C)NC(=O)[C@H](CO)NC(=O)[C@H](CCCCN)NC(=O)[C@H]([C@@H](C)O)NC(=O)[C@H](C)NC(=O)[C@H](CCCNC(=N)N)NC(=O)CNC(=O)[C@@H](N)CSSC[C@@H](C(=O)N[C@@H](Cc2ccccc2)C(=O)O)NC1=O [BT16] (H-CGRATKSLPAICF-OH; disulfide 1-12; C-terminus assumed)
inhibitory activity against trypsin (in words): reduced their anti-trypsin activities
Ki [1]: 190 nM
inhibitory activity against trypsin (in words) (listed as SEQ ID NO: 16): excellent trypsin inhibitory activities
Residual trypsin activity (peptide 0.00488 μM): 95.4 ± 4.3%
Residual trypsin activity (peptide 0.0098 μM): 96.1 ± 0.6%
Residual trypsin activity (peptide 0.0195 μM): 101.7 ± 1.2%
Residual trypsin activity (peptide 0.390 μM): 88.4 ± 2.0%
Residual trypsin activity (peptide 0.780 μM): 59.7 ± 3.2%
Residual trypsin activity (peptide 0.98 μM): 42.2 ± 3.3%
Residual trypsin activity (peptide 2.439 μM): 0.8 ± 0.1%
Residual trypsin activity (peptide 4.88 μM): 0.0 ± 0.2%

CC[C@H](C)[C@@H]1NC(=O)[C@@H]2CCCN2C(=O)[C@@H]2CCCN2C(=O)[C@H]([C@@H](C)CC)NC(=O)[C@H](CO)NC(=O)[C@H](CCCNC(=N)N)NC(=O)[C@H]([C@@H](C)O)NC(=O)[C@H](C)NC(=O)[C@H](CCCNC(=N)N)NC(=O)CNC(=O)[C@@H](N)CSSC[C@@H](C(=O)N[C@@H](Cc2ccccc2)C(=O)O)NC1=O [BT17] (H-CGRATRSIPPICF-OH; disulfide 1-12; C-terminus assumed)
inhibitory activity against trypsin (in words): excellent trypsin inhibitory activities
Ki [1]: 120 nM
Residual trypsin activity (peptide 0.00098 μM): 97.9 ± 0.8%
Residual trypsin activity (peptide 0.0098 μM): 97.5 ± 0.7%
Residual trypsin activity (peptide 0.098 μM): 93.6 ± 4.5%
Residual trypsin activity (peptide 0.488 μM): 61.9 ± 3.0%
Residual trypsin activity (peptide 0.7317 μM): 30.0 ± 5.3%
Residual trypsin activity (peptide 0.98 μM): 1.5 ± 0.3%
Residual trypsin activity (peptide 9.76 μM): 0.1 ± 0.0%
Residual trypsin activity (peptide 97.56 μM): 0.1 ± 0.0%
decrease in inhibitory activity compared to BT9 (trypsin): ~12 fold

CC[C@H](C)[C@@H]1NC(=O)[C@@H]2CCCN2C(=O)[C@@H]2CCCN2C(=O)[C@H]([C@@H](C)CC)NC(=O)[C@H](CO)NC(=O)[C@H](CCCNC(=N)N)NC(=O)[C@H]([C@@H](C)O)NC(=O)[C@H](C)NC(=O)[C@H](CCCNC(=N)N)NC(=O)CNC(=O)[C@@H](N)CSSC[C@@H](C(=O)N[C@@H](Cc2ccc(O)cc2)C(=O)O)NC1=O [BT18] (H-CGRATRSIPPICY-OH; disulfide 1-12; N-terminus and C-terminus assumed)
inhibitory activity against trypsin (in words): significant impact on their anti-trypsisn activities
